Reference: paper PMC6332220, “Synthesis, Characterization and Biological Evaluation of Some Quinoxaline Derivatives: A Promising and Potent New Class of Antitumor and Antimicrobial Agents” (Molecules, 2015)
Values after ≈ are worked out from the molar mass of the structure shown.

Assays:
[1] = system: NCI-H460 (non-small cell lung cancer); assay: In vitro cytotoxicity, SRB cell growth assay, NCI-H460; conditions: Homo sapiens, NCI-H460, 48 h, read-out: IC50 (μg/mL) NCI-H460
Description: The in vitro cytotoxic activity of the newly synthesized compounds against human breast cell line (MCF7), non-small cell lung cancer NCIH460, CNS cancer SF-268 and WI 38 (normal fibroblast cells) were evaluated using doxorubicin as the reference drug according to the method reported by Skehan et al..
The newly synthesized compounds were evaluated in vitro against three human cancer cell lines; which are MCF-7 (breast adenocarcinoma), NCI-H460 (non-small cell lung cancer) and SF-268 (CNS cancer), and WI 38 (normal fibroblast cells) were used in this study. MCF-7 was obtained from the European Collection of Cell Cultures (ECACC, Salisbury, UK) but NCI-H460, SF-268 and WI 38 were kindly provided by the National Cancer Institute (NCI, Cairo, Egypt). They grow as monolayer and routinely maintained RPMI-1640 medium supplemented with 5% heat inactivated fetal bovine serum (FBS), 2 mM glutamine and antibiotics (penicillin 100 U/mL, streptomycin 100 µg/mL), at 37 °C in a humidified atmosphere containing 5% CO2. Exponentially growing cells were obtained by plating 1.5 × 10^5 cells/mL for MCF-7 and SF-268, and 0.75 × 10^4 cells/mL for NCI-H460 followed by 24 h of incubation. The effect of the vehicle solvent (DMSO) on the growth of these cell lines was evaluated in all experiments by exposing untreated control cells to the maximum concentration (0.5%) of DMSO used in each assay.
The effect of compounds on the in vitro growth of human tumor cell lines were evaluated according to the procedure adopted by the National Cancer Institute ([…]) in the “In vitro Anticancer Drug Discovery Screen” that uses the protein-binding dye sulforhodamine B (SRB) to assess cell growth. In the assay protocol, all cells were incubated at 37 °C under humidified atmosphere containing 5% CO2. Briefly, exponentially cells growing in 96-well plates were then exposed for 48 h to five serial concentrations of each compound, starting from a maximum concentration of 150 μg/mL. Following this exposure period adherent cells were fixed, washed and stained. The bound stain was solubilized and the absorbance was measured at 492 nm in a plate reader (Bio-Tek Instruments Inc., Power wave XS, Winston, NC, USA). For each test compound and cell line, a dose response curve was obtained and the inhibitory concentration of 50% (IC50), corresponding to the concentration of the compounds that inhibited 50% of the net cell growth was calculated as described elsewhere. Doxorubicin was used as a positive control and tested in the same manner.

Bacillus subtilis = assay: Disk diffusion, Bacillus subtilis; format: cell-based; conditions: Gram positive, 8.0 mm disks, 10 μL
Description: (§1) The disk diffusion method was used for determination of the antimicrobial activity using ampicillin, gentamicin and amphotericin B as reference drugs. The results were recorded for each compounds as the average diameter as inhibition zones (IZ) of bacterial or fungal growth around the discs in mm as shown in Table 2.
(§2) Antimicrobial activities were carried out against highly pathogenic strains; three strains of Gram positive bacteria (Bacillus subtilis, Staphylococcus aureus and Streptococcus faecalis), four strains of Gram negative bacteria (Escherichia coli, Neisseria gonorrhoeae, Pseudomonas aeruginosa and Salmonella typhimurium) and three fungi strains (Aspergillus flavus, Aspergillus fumigatus and Candida albicans) isolated from primary agar plates. Antimicrobial activity of the tested samples was determined using a modified Kriby-Bauer disk diffusion method. Briefly, 100 µL of the test bacteria/fungi were grown in 10 mL of fresh media until they reached a count approximately 10^8 cells/mL for bacteria or 10^5 cells/mL for fungi. 100 µL of microbial suspension was spread onto agar plates corresponding to the broth in which they were maintained. The inoculated plates of bacterial strains were incubated at 35–37 °C for 24–48 h, while the inoculated plates of fungal strains such as A. flavus and A. fumigatus were incubated at 25 °C for 48 h and yeast as C. albicans was incubated at 30 °C for 24–48 h.
(§3) The agar disk diffusion (qualitative) method was used in this investigation for determination of the preliminary antibacterial and antifungal activities. The agar used was Mueller-Hinton agar plates that are rigorously tested for composition and pH. Further the depth of the agar in the plate is a factor to be considered in the disk diffusion method.
(§4) Reference drugs: ampicillin was used as a standard antibacterial drug for Gram positive bacteria, gentamicin as a standard antibacterial drug for Gram negative bacteria and amphotericin B as antifungal standard drug.
(§5) Bacterial and fungal strains were spread onto the surface of the agar plates using sterile cotton swabs. For evaluation of antibacterial activities, blank paper disks (Schleicher & Schuell, Alicante, Spain) with a diameter of 8.0 mm were saturated with 10 μL of tested concentration of the stock solutions. Disks were dried and then placed onto inoculated agar plates. The plates of bacterial strains were reincubated at 35–37 °C for 24–48 h, while the plates of fungal strains such as A. flavus and A. fumigatus were reincubated at 25 °C for 48 h and yeast as C. albicans was reincubated at 30 °C for 24–48 h as mentioned above. […] For an accurate analysis, tests were run in triplicate for each strain to avoid any error as described in Table 2.

Staphylococcus aureus = assay: Disk diffusion, Staphylococcus aureus; format: cell-based; conditions: Gram positive, 8.0 mm disks, 10 μL
Description: as §1, §2, §3, §4, §5

Streptococcus faecalis = assay: Disk diffusion, Streptococcus faecalis; format: cell-based; conditions: Gram positive, 8.0 mm disks, 10 μL
Description: as §1, §2, §3, §4, §5

Escherichia coli = assay: Disk diffusion, Escherichia coli; format: cell-based; conditions: Gram negative, 8.0 mm disks, 10 μL
Description: as §1, §2, §3, §4, §5

Pseudomonas aeruginosa [2] = assay: Disk diffusion, Pseudomonas aeruginosa; format: cell-based; conditions: Gram negative, 8.0 mm disks, 10 μL
Description: as §1, §2, §3, §4, §5

Aspergillus fumigatus = assay: Disk diffusion, Aspergillus fumigatus; format: cell-based; conditions: Fungi, 8.0 mm disks, 10 μL
Description: as §1, §2, §3, §4, §5
(§6) Disk diffusion method for filamentous fungi testing by using approved standard method (M02-A11) developed by the CLSI for evaluating the susceptibilities of filamentous fungi to antifungal agents. Disk diffusion method for yeasts developed by using approved standard method (M44-A2) by the CLSI [44]. Agar-based methods such as disk diffusion can be good alternatives because they are simpler and faster than broth-based methods.

Candida albicans = assay: Disk diffusion, Candida albicans; format: cell-based; conditions: Fungi, 8.0 mm disks, 10 μL
Description: as §1, §2, §3, §4, §5, §6

Pseudomonas aeruginosa [3] = assay: MIC by broth dilution, Pseudomonas aeruginosa; format: cell-based; conditions: Pseudomonas aeruginosa, Gram negative, 0.98-125 µg/mL, read-out: Minimum Inhibitory Concentration (MIC) (µg/mL) Pseudomonas aeruginosa
Description: In this study, MIC (quantitative method) was used for evaluation of the antimicrobial activity of tested compounds. Screening was evaluated in vitro using the Broth dilution method according to CLSI [45]. All the bacteria were incubated and activated at 30 °C for 24 h inoculation into nutrient broth and the fungi were incubated in malt extract broth for 48 h. The compounds were dissolved in DMSO and then diluted using […] Mueller-Hinton broth. […] In each case triplicate tests were performed and the average was taken as the final reading. The tubes were then inoculated with the test organisms, grown in their suitable broth at 37 °C for 24 h for tested microorganisms (1 × 10^8 CFU/mL for bacteria and 1 × 10^6 CFU/mL of fungi), each 5 mL received 0.1 mL of the above inoculum and incubated at 37 °C for 24 h.

Compound	IC50 [1] [µg/mL]	Inhibition Zone Diameter (IZ) (mm) Bacillus subtilis (Bacillus subtilis) [mm]	Inhibition Zone Diameter (IZ) (mm) Staphylococcus aureus (Staphylococcus aureus) [mm]	Inhibition Zone Diameter (IZ) (mm) Streptococcus faecalis (Streptococcus faecalis) [mm]	Inhibition Zone Diameter (IZ) (mm) Escherichia coli (Escherichia coli) [mm]	Inhibition Zone Diameter (IZ) (mm) Pseudomonas aeruginosa (Pseudomonas aeruginosa [2]) [mm]	Inhibition Zone Diameter (IZ) (mm) Aspergillus fumigatus (Aspergillus fumigatus)	Inhibition Zone Diameter (IZ) (mm) Candida albicans (Candida albicans)	MIC (Pseudomonas aeruginosa [3]) [µg/mL]	melting point [°C]
NNc1nc2cc(Br)ccc2nc1Cl [Compound 3, 6-Bromo-2-chloro-3-hydrazinylquinoxaline]	26.7 ± 2.18 (≈ 97.8 µM)	15	14	14	13	14	R (R (IZ = 0 mm))	R (R (IZ = 0 mm))	125 (≈ 457 µM)	201 to 203
Clc1nc2ccc(Br)cc2n2nnnc12 [Compound 4, 8-Bromo-4-chlorotetrazolo[1,5-a]quinoxaline]	0.01 ± 0.004 (≈ 0.0351 µM)	20	26	18	17	21	10 mm	20 mm	> 125	199 to 201
Brc1ccc2nc(N3CCCCC3)c3nnnn3c2c1 [Compound 5a, 8-Bromo-4-(piperidin-1-yl)tetrazolo[1,5-a]quinoxaline]	0.02 ± 0.006 (≈ 0.06 µM)	13	11	9	13	11	12 mm	12 mm	125 (≈ 375 µM)	122 to 123
Brc1ccc2nc(N3CCOCC3)c3nnnn3c2c1 [Compound 5b, 8-Bromo-4-(morpholin-4-yl)tetrazolo[1,5-a]quinoxaline]	0.01 ± 0.002 (≈ 0.0298 µM)	17	17	11	11	10	12 mm	9 mm	> 125	144 to 146
NNc1nc2ccc(Br)cc2nc1NN [Compound 9, 6-Bromo-2,3-dihydrazinylquinoxaline]	16.4 ± 2.32 (≈ 60.8 µM)	28	27	27	29	31	5 mm	11 mm	125 (≈ 465 µM)	–
Brc1ccc2c(c1)n1nnnc1c1nnnn21 [Compound 11, 9-Bromoditetrazolo[1,5-a:5′,1′-c]quinoxaline]	2.83 ± 0.53 (≈ 9.72 µM)	19	17	15	15	14	R (R (IZ = 0 mm))	R (R (IZ = 0 mm))	125 (≈ 429 µM)	–
Cc1cc(C)n(-c2nc3cc(Br)ccc3nc2NN)n1 [Compound 14, 6-Bromo-3-(3,5-dimethyl-1H-pyrazol-1-yl)-2-hydrazinyl quinoxaline]	38.3 ± 2.35 (≈ 115 µM)	12	12	12	12	12	R (R (IZ = 0 mm))	R (R (IZ = 0 mm))	125 (≈ 375 µM)	164 to 166
NC1=NN(c2nc3ccc(Br)cc3nc2N2N=C(N)CC2=O)C(=O)C1 [Compound 16, 6-Bromo-2,3-bis(3-amino-1H-pyrazol-5(4H)-one)quinoxaline]	22.9 ± 0.46 (≈ 56.9 µM)	10	12	11	10	11	R (R (IZ = 0 mm))	R (R (IZ = 0 mm))	125 (≈ 310 µM)	232 to 233
